From patent US6756033B2, “Method for delivering benzindene prostaglandins by inhalation” (United Therapeutics Corporation, priority 1999, dated 2004)

What was measured:
[1] = system: U44069 induced pulmonary hypertension; assay type: in vivo, sheep
Excerpt: (§1) The efficacy of benzindene prostaglandins, such as UT-15, for treating pulmonary hypertension can be assessed by determining the hemodynamics associated with pulmonary hypertension. In particular, measurements of pulmonary arterial pressure (PPA), left atrial pressure (PLA), central venous pressure (PCV), systemic arterial pressure (PSYS), heart rate (HR), and cardiac output (CO) are useful in determining the effects of benzindene prostaglandins delivered by inhalation or parenterally.
(§2) Heart rate was determined by measuring the time (seconds) required for 25 heart beats to occur (t25) as indicated by the pulsations on the blood flow meter; the beats per minute (BPM) were calculated by the following equation: […]
(§3) All pressure may be monitored by commercially available transducers, such as Model 1290A HEWLETT PACKARD™ transducer (Andover, Mass.), which is attached to VALIDYNE CD19A Carrier Dmod. Amplifiers (Northridge, Calif.). Cardiac output may be measured by a Transonic Systems T101 Ultrasonic Bloodflow Meter (Ithaca, N.Y.). The pressure and blood flow signals may be recorded on ASTROMED MT-9500 Stripchart Recorder (West Warwick, R.I.) and digitally recorded with a personal computer using Easy Data Acquisition Software (Nashville, Tenn.).
Sheep were used as the animal model of choice for these experiments for a number of reasons. First is the docile nature of sheep. They will stand quietly in metabolic cages without having to utilize tranquilizing drugs, which have the potential to complicate experimental results. Second, sheep are large enough to allow direct measurement of CO, PPA, PLA, PCV, and PSYS. Sheep are also large enough to allow direct aerosolization of substances into the lung via trachoestomy thereby preventing swallowing of drugs and thus eliminating a possible secondary route of administration of UT-15. Third, sheep can tolerate a great amount of instrumentation with little or no discomfort. Fourth, sheep have been utilized for several years as an animal model of pulmonary arterial hypertension and thus, there is a great amount of historical data with which to compare the results. The agent chosen to induce pulmonary arterial hypertension was a PGH2 analog, U44069 (9,11-dideoxy,9α,11α-epoxymethanoprostaglandin F2α). The reasons for using U44069 are that it is a very potent pulmonary vasoconstrictor, its characteristics are very similar to endogenously formed thromboxane A2, and it can be titrated to induce the desired degree of pulmonary vasoconstriction. U44069 was mixed with sterile normal saline immediately prior to being used and was protected from light by wrapping the solution with aluminum foil. The concentration of U44069 was adjusted such that a minimal flow rate of 0.8 ml per min was being infused into the sheep. This was done because more concentrated U44069 would have to be infused at very low rates and often causes “pulses” of U44069 due to the infusion characteristics of roller pumps. The U44069 pulses cause vasoconstriction “spikes” and thus would create induce a non-steady-state.
Six yearling sheep (3 males, 3 females; 21-37 kg) were fasted 18-24 hours and initially anesthetized with a short acting barbiturate (thiopental) to allow intubation of the sheep. Halothane gas anesthesia (1.5-2.5%) was then used for the surgical procedures. Via a left thoracotomy, a Transonic blood flow probe was placed around the main pulmonary artery, silastic catheters placed in the main pulmonary artery and left atrium. After approximately 7 days the sheep were reanesthetized and the left carotid artery cannulated, a Cordis Introducer Sheath inserted in the left jugular vein, and a tracheotomy made. The sheep were allowed to recover for another 3-5 days prior to experimentation. […]

sheep [2] = assay: Intravenous and aerosolized UT-15 dose response effects on baseline hemodynamics; assay type: in vivo; conditions: baseline conditions; for central venous pressure (PCV) relative to baseline / pulmonary arterial pressure (PPA) relative to baseline: any dose; for systemic arterial pressure (PSYS): any administration rate; for cardiac output (CO) relative to baseline: any delivery rate
Excerpt: as §1, §2, §3
Inhalation solutions were prepared by combining 1.25 grams of Sodium Citrate (Hydrous), 0.125 Citric Acid (Anhydrous), 0.05 grams of Sodium Hydroxide (NF/BP), 0.125 grams of UT-15, and approximately 250 ml of Water for Injection according to the following steps.
Working solution was made by adding sterile saline to dilute the UT15 stock solution or placebo to the desired amount (depending on dose desired, weight of sheep, and duration of aerosolizing). This solution was then added to the nebulizer in volumes not exceeding 5 ml until entire amount was used.
Six yearling sheep (3 males, 3 females; 21-37 kg) were fasted 18-24 hours and initially anesthetized with a short acting barbiturate (thiopental) to allow intubation of the sheep. Halothane gas anesthesia (1.5-2.5%) was then used for the surgical procedures. Via a left thoracotomy, a Transonic blood flow probe was placed around the main pulmonary artery, silastic catheters placed in the main pulmonary artery and left atrium. After approximately 7 days the sheep were reanesthetized and the left carotid artery cannulated, a Cordis Introducer Sheath inserted in the left jugular vein, and a tracheotomy made. The sheep were allowed to recover for another 3-5 days prior to experimentation. These sheep were used to allow measurement of pulmonary arterial pressure (PPA), left atrial pressure (PLA), central venous pressure (PCV), systemic arterial pressure (PSYS), heart rate (HR), and cardiac output (CO) after baseline measurements were made for a minimum of 30 minutes.
Two separate experiments were conducted to determine the dose response effects of intravenously infused UT-15 on baseline hemodynamics and aerosolized UT-15 on baseline hemodynamics. For the infusion experimental protocol, after a 30 minute baseline was established, UT-15 was infused intravenously at 3 rates (250, 500 and 1000 ng per kg per min). In three sheep, the infusion rates lasted for 30 minutes each, and for the other three sheep, the infusions were for 60 minutes each.
The aerosolized UT-15 protocol involved establishing a 30 minute baseline, then administering aerosolized UT-15 via a tracheostromy at rates of […] per kg of body weight per min and at an aerosolization rate of 0.28 ml/min. Again, three sheep were aerosolized for 30 minutes and the other three sheep were aerosolized for 60 minutes.

sheep [3] = assay: as above; assay type: in vivo; conditions: baseline conditions, aerosolized, 250, 500, and 100 ng per kg per min
blood platelets = conditions: cited from earlier work
[4] = U44069 iv infusion alone, 1 ng per kg per min

SMILES: CCCCC[C@H](O)/C=C/C1C2COC(C2)C1C/C=C\CCCC(=O)O (stereo partly drawn) [U44069, 9,11-dideoxy,9α,11α-epoxymethanoprostaglandin F2α, reference compound]
- left atrial pressure [1, 4]: did not alter left atrial pressure significantly
- pulmonary arterial pressure (PPA) relative to baseline [1, 4]: significantly increased
- pulmonary vascular resistance (PVR) [1, 4]: dramatic increase

SMILES: CCCCC[C@H](O)CC[C@@H]1[C@H]2Cc3cccc(OCC(=O)O)c3C[C@H]2C[C@H]1O [UT-15, 9-deoxy-2′,9-alpha-methano-3-oxa-4,5,6-trinor-3,7-(1′,3′-interphenylene)-13,14-dihydro-prostaglandin F1]
- central venous pressure (PCV) relative to baseline (sheep [2]; aerosol): no statistical difference
- pulmonary vascular resistance (PVR) (sheep [2]; aerosolized, all 3 delivery rates): significant decrease
- systemic arterial pressure (PSYS) (sheep [2]; aerosolized): no significant effect
- cardiac output (CO) relative to baseline (sheep [2]; aerosolized): no significant changes
- pulmonary arterial pressure (PPA) relative to baseline (sheep [2]; aerosolized, not statistically different): general trend for PPA to decrease
- left atrial pressure (PLA) relative to baseline (sheep [2]; aerosolized, mean values increased): neither intravenous nor aerosolized UT-15 caused PLA to significantly change
- pulmonary vascular resistance (PVR) (sheep [2]; intravenous): no significant effect
- systemic arterial pressure (PSYS) (sheep [2]; intravenous): no significant effect
- cardiac output (CO) relative to baseline (sheep [2]; intravenous): no significant changes
- central venous pressure (PCV) relative to baseline (sheep [2]; intravenous): no statistical difference
- pulmonary arterial pressure (PPA) relative to baseline (sheep [2]; intravenous): same effects
- left atrial pressure (PLA) relative to baseline (sheep [2]; intravenous, mean values decreased): neither intravenous nor aerosolized UT-15 caused PLA to significantly change
- potency and efficacy in attenuating chemically induced pulmonary hypertension (increase in PVR) ([1]; aerosolized UT-15 compared to intravascularly administered UT-15): greater potency and efficacy
- central venous pressure ([1]; during iv U44069, aerosol UT-15, only 500 ng per kg per min): different from the corresponding intravenous UT-15 infusion value
- pulmonary arterial pressure (PPA) ([1]; during iv U44069, aerosolized UT-15, 500 and 1000 ng per kg per min): back to normal values
- pulmonary vascular resistance (PVR) relative to baseline PVR ([1]; during iv U44069, aerosolized UT-15, any of the three delivery rates): no significant difference
- pulmonary arterial pressure (PPA) versus U44069 value ([1]; during iv U44069, intravascular UT-15): decrease significantly
- pulmonary vascular resistance (PVR), U44069-induced increase ([1]; during iv U44069, intravenously infused UT-15, 500 and 1000 ng per kg per min): significantly attenuated
- left atrial pressure versus U44069 value ([1]; during iv U44069, intravenously infused UT-15, all three delivery rates): significant decrease
- peripheral effects (heart rate, cardiac output) ([1]; in vivo): no apparent peripheral effects
- pulmonary vascular driving pressure (PPA minus PLA) versus baseline (sheep [3]): significant
- anti-aggregatory action on blood platelets (blood platelets): potent anti-aggregatory action
